Here are results for 20 molecules from patent publication US20080234262A1 (Wyeth, priority 2007, published 2008).

As a reminder, the IC50 is the midpoint of a concentration-inhibition curve.

SMILES strings stand for the structures. Where two headings read alike, the source gives them in different places.

One assay relates to breast line MDA468. The experiment in a line: In vitro cell culture growth assay (MTS), MDA468. The class given is cell-based, human. The settings on record: MDA468 cells, three days after drug treatment. In outline: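 Three-day drug treatment starting 1 day post-plating; viable cells quantified via MTS metabolism (A490); effect normalised to in-plate vehicle controls as % growth.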

Another assay deals with prostate line LNCap. The experiment in a line: In vitro cell culture growth assay (MTS), LNCap.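 Further: viable cell density read by absorbance at 490 nm, growth expressed as percent of vehicle-treated cells on the same plate.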 It is filed as cell-based, human. Conditions: LNCap cells, three days after drug treatment.
The target of another assay is PI3K (Homo sapiens, UniProt P42336). Nature of the assay: Fluorescence polarization assay for PI3K.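 Further: PI3K kinase reaction on PIP2 with ATP, 30-60 min, product sensed by GST-GRP with red probe in fluorescence polarization (mP), controls without enzyme and at zero time.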 It is filed as biochemical. (In general: Fluorescence polarisation rises when a labelled molecule tumbles more slowly, as on binding a larger partner.)
Chain of PI3K (P42336 whole entry): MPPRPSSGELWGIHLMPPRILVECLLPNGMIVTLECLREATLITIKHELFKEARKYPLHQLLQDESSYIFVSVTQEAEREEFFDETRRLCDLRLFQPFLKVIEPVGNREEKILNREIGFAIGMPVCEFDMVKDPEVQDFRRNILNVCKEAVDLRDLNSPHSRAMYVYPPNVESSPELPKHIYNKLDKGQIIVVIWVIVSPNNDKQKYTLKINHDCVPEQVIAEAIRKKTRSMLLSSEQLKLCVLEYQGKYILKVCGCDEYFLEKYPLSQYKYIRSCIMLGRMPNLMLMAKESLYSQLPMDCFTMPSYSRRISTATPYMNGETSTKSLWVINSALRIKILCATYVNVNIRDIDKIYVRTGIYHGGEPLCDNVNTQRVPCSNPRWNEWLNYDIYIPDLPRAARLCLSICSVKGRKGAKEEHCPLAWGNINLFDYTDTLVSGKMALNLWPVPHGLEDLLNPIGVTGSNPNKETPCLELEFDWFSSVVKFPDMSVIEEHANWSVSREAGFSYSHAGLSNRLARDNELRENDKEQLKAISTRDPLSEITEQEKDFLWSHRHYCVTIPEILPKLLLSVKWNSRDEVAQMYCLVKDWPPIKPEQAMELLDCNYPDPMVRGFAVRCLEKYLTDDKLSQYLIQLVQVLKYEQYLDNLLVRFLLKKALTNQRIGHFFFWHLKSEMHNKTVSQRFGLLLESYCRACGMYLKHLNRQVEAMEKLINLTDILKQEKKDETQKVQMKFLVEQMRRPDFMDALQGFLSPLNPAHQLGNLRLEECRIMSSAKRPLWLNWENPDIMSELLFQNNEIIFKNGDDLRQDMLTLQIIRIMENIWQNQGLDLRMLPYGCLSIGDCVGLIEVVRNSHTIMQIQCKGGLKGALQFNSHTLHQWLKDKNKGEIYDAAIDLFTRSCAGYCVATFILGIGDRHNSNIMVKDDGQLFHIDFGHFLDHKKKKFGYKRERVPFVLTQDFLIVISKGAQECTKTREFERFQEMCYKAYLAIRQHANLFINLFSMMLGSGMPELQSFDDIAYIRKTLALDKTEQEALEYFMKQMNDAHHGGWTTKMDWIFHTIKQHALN
Chain of PI3K (P27986 whole entry partner): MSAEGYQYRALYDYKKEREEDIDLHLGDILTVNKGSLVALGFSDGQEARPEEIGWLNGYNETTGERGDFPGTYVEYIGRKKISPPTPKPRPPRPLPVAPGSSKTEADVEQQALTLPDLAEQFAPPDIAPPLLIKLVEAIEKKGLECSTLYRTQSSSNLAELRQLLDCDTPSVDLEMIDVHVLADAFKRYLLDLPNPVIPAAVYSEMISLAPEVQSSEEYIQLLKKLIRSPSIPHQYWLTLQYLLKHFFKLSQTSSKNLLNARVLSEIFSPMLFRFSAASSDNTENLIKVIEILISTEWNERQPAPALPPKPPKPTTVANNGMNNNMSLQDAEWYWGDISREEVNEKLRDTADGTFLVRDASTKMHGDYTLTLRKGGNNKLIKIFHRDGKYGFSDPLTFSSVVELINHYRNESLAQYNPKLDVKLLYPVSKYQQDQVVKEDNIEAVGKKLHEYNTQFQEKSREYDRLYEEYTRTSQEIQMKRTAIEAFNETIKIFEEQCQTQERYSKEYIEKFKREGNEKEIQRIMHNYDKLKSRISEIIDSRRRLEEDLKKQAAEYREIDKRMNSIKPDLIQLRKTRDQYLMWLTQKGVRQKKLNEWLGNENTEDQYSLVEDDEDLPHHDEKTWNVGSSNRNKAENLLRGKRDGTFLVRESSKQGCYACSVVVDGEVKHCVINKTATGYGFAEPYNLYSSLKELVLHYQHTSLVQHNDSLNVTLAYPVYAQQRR

In the case of `O=C(Nc1ccccc1)Nc1ccc(-c2nc(N3CCOCC3)c3cnn(C4CCN(Cc5cccnc5)CC4)c3n2)cc1` [Compound 586, 1-(4-{4-morpholin-4-yl-1-[1-(pyridin-3-ylmethyl)piperidin-4-yl]-1H-pyrazolo[3,4-d]pyrimidin-6-yl}phenyl)-3-phenylurea], the IC50 in the assay with breast line MDA468 (Homo sapiens, 72 h) was 220 nM; in the assay on prostate line LNCap (Homo sapiens, LNCaP, 72 h), 31 nM; on PI3K (PI3Kα, read-out: PI3Kα IC50), 11 nM.

For `COC(=O)Nc1ccc(-c2nc(N3CCOCC3)c3cnn(C4CCN(C(=O)c5ccccc5F)CC4)c3n2)cc1` [Compound 687, methyl (4-{1-[1-(2-fluorobenzoyl)piperidin-4-yl]-4-morpholin-4-yl-1H-pyrazolo[3,4-d]pyrimidin-6-yl}phenyl)carbamate], the IC50 in the assay on breast line MDA468 was determined as 480 nM; in the assay with prostate line LNCap it was 250 nM; at PI3K (PI3Kα, read-out: PI3Kα IC50), 1140 nM.

For `COC(=O)Nc1ccc(-c2nc(N3CCOCC3)c3cnn(C4CCN(CC(F)(F)F)CC4)c3n2)cc1` [Compound 781, methyl (4-{4-morpholin-4-yl-1-[1-(2,2,2-trifluoroethyl)piperidin-4-yl]-1H-pyrazolo[3,4-d]pyrimidin-6-yl}phenyl)carbamate], the IC50 in the assay with breast line MDA468 (Homo sapiens, 72 h) is 7900 nM; in the assay on prostate line LNCap (Homo sapiens, LNCaP, 72 h), 1800 nM; on PI3K (PI3Kα, read-out: PI3Kα IC50), 1740 nM.

On to `COc1ncccc1CN1CCC(n2ncc3c(N4CCOCC4)nc(-c4ccc5[nH]ccc5c4)nc32)CC1` [Compound 177], for which the half-maximal inhibitory concentration (IC50) in the assay with breast line MDA468 (Homo sapiens, 72 h) was determined as 3100 nM; in the assay on prostate line LNCap (Homo sapiens, LNCaP, 72 h) it was 1300 nM; on PI3K (PI3Kα, read-out: PI3Kα IC50), 885 nM.

Regarding `CCOC(=O)N1CCC(n2ncc3c(N4CCOC[C@H]4C)nc(-c4ccc(NC(=O)NC)cc4)nc32)CC1` [Compound 888, ethyl 4-(6-{4-[(methylcarbamoyl)amino]phenyl}-4-[(3R)-3-methylmorpholin-4-yl]-1H-pyrazolo[3,4-d]pyrimidin-1-yl)piperidine-1-carboxylate], the IC50 in the assay on breast line MDA468 (Homo sapiens, 72 h) stood at 220 nM; in the assay with prostate line LNCap (Homo sapiens, LNCaP, 72 h), 10 nM; at PI3K (PI3Kα, read-out: PI3Kα IC50) it was 1990 nM.

For `c1ccc(CN2CCC(n3ncc4c(N5CCOCC5)nc(-c5cnc6ccccc6c5)nc43)CC2)cc1` [Compound 484, 3-[1-(1-benzylpiperidin-4-yl)-4-morpholin-4-yl-1H-pyrazolo[3,4-d]pyrimidin-6-yl]quinoline], the IC50 with breast line MDA468 (Homo sapiens, 72 h) is 22000 nM; in the assay on prostate line LNCap (Homo sapiens, LNCaP, 72 h), above 60000 nM; on PI3K (PI3Kα, read-out: PI3Kα IC50) it was 6000 nM.

As to `c1cc(CN2CCC(n3ncc4c(N5CCOCC5)nc(-c5ccc6[nH]ccc6c5)nc43)CC2)ccn1` [Compound 179], the IC50 with breast line MDA468 (Homo sapiens, 72 h) is 1800 nM; in the assay with prostate line LNCap (Homo sapiens, LNCaP, 72 h) it was 600 nM; at PI3K (PI3Kα, read-out: PI3Kα IC50), 649 nM.

Take `CNC(=O)Nc1ccc(-c2nc(N3CCOCC3)c3cnn(C4CCN(C(=O)COC)CC4)c3n2)cc1` [Example 474, 1-(4-{1-[1-(methoxyacetyl)piperidin-4-yl]-4-morpholin-4-yl-1H-pyrazolo[3,4-d]pyrimidin-6-yl}phenyl)-3-methylurea]: the IC50 came out at 1400 nM with breast line MDA468 (Homo sapiens, 72 h); 1010 nM in the assay with prostate line LNCap (Homo sapiens, LNCaP, 72 h); 287 nM on PI3K (PI3Kα, read-out: PI3Kα IC50).

With `CCNC(=O)Nc1ccc(-c2nc(N3CCOCC3)c3cnn(C4CCN(C(=O)c5cccnc5)CC4)c3n2)c(F)c1` [Example 462, 1-ethyl-3-(3-fluoro-4-{4-morpholin-4-yl-1-[1-(pyridin-3-ylcarbonyl)piperidin-4-yl]-1H-pyrazolo[3,4-d]pyrimidin-6-yl}phenyl)urea], the 50% inhibitory concentration (IC50) was 900 nM in the assay on breast line MDA468 (Homo sapiens, 72 h); 900 nM in the assay on prostate line LNCap (Homo sapiens, LNCaP, 72 h); 1620 nM on PI3K (PI3Kα, read-out: PI3Kα IC50).

For the molecule `CN(C)CCCNC(=O)c1ccc(-c2nc(N3CCOCC3)c3cnn(-c4ccccc4)c3n2)cc1` [Compound 102], the IC50 stood at 7500 nM in the assay on breast line MDA468 (Homo sapiens, 72 h); 3200 nM with prostate line LNCap (Homo sapiens, LNCaP, 72 h); 320 nM at PI3K (PI3Kα, read-out: PI3Kα IC50).

Regarding `O=C(NCCF)Nc1ccc(-c2nc(N3CCOCC3)c3cnn(C4CCN(CC(F)(F)F)CC4)c3n2)cc1` [Compound 783, 1-(2-fluoroethyl)-3-(4-{4-morpholin-4-yl-1-[1-(2,2,2-trifluoroethyl)piperidin-4-yl]-1H-pyrazolo[3,4-d]pyrimidin-6-yl}phenyl)urea], the IC50 was 390 nM in the assay on breast line MDA468 (Homo sapiens, 72 h); 60 nM in the assay with prostate line LNCap (Homo sapiens, LNCaP, 72 h); 1120 nM at PI3K (PI3Kα, read-out: PI3Kα IC50).

With `CNS(=O)(=O)c1ccc(-c2nc(N3CCOCC3)c3cnn(C4CCN(Cc5ccccc5)CC4)c3n2)cc1` [Compound 86], the IC50 came to 6500 nM in the assay on breast line MDA468 (Homo sapiens, 72 h); 7200 nM in the assay on prostate line LNCap (Homo sapiens, LNCaP, 72 h); 4660 nM on PI3K (PI3Kα, read-out: PI3Kα IC50).

`O=C(Nc1ccncc1)Nc1ccc(-c2nc(N3CCOCC3)c3cnn(C4CCN(Cc5cccnc5)CC4)c3n2)cc1` [Compound 587, 1-(4-{4-morpholin-4-yl-1-[1-(pyridin-3-ylmethyl)piperidin-4-yl]-1H-pyrazolo[3,4-d]pyrimidin-6-yl}phenyl)-3-pyridin-4-ylurea]: the concentration for half-maximal inhibition (IC50) was 120 nM in the assay on breast line MDA468 (Homo sapiens, 72 h); 28 nM with prostate line LNCap (Homo sapiens, LNCaP, 72 h); 12 nM on PI3K (PI3Kα, read-out: PI3Kα IC50).

Consider `Clc1ccc(CN2CCC(n3ncc4c(N5CCOCC5)nc(-c5ccc6[nH]ccc6c5)nc43)CC2)cn1` [Compound 174, 1-{1-[(6-chloropyridin-3-yl)methyl]piperidin-4-yl}-6-(1H-indol-5-yl)-4-orpholin-4-yl-1H-pyrazolo[3,4-d]pyrimidine], for which the IC50 in the assay on breast line MDA468 (Homo sapiens, 72 h) is 2800 nM; in the assay with prostate line LNCap (Homo sapiens, LNCaP, 72 h), 1000 nM; on PI3K (PI3Kα, read-out: PI3Kα IC50), 304 nM.

For `CCOC(=O)N1CCC(n2ncc3c(N4CCOC[C@@H]4C)nc(-c4ccc(NC(=O)Nc5ccc(N6CCOCC6)cc5)cc4)nc32)CC1` [Compound 899, ethyl 4-{4-[(3S)-3-methylmorpholin-4-yl]-6-(4-{[(4-morpholin-4-ylphenyl)carbamoyl]amino}phenyl)-1H-pyrazolo[3,4-d]pyrimidin-1-yl}piperidine-1-carboxylate], the 50% inhibitory concentration (IC50) in the assay with breast line MDA468 (Homo sapiens, 72 h) came to 150 nM; in the assay with prostate line LNCap (Homo sapiens, LNCaP, 72 h), 6.8 nM; at PI3K (PI3Kα, read-out: PI3Kα IC50), 30 nM.

Regarding `O=C(Oc1ccccc1)N1CCC(n2ncc3c(N4CCOCC4)nc(-c4ccc5[nH]ccc5c4)nc32)CC1` [Compound 243, phenyl 4-[6-(1H-indol-5-yl)-4-morpholin-4-yl-1H-pyrazolo[3,4-d]pyrimidin-1-yl]piperidine-1-carboxylate], the IC50 in the assay on breast line MDA468 (Homo sapiens, 72 h) amounted to 4300 nM; with prostate line LNCap (Homo sapiens, 72 h), 1300 nM; on PI3K (PI3Kα IC50, PI3Kα), 535 nM.

Consider `Oc1cccc(-c2nc(N3CCOCC3)c3cnn(CC(F)(F)F)c3n2)c1` [Compound 728, 3-[4-morpholin-4-yl-1-(2,2,2-trifluoroethyl)-1H-pyrazolo[3,4-d]pyrimidin-6-yl]phenol], for which the IC50 in the assay on breast line MDA468 (Homo sapiens, 72 h) is 745 nM; in the assay with prostate line LNCap (Homo sapiens, LNCaP, 72 h), 240 nM; on PI3K (PI3Kα, read-out: PI3Kα IC50) it was 40 nM.

Turning to `CNC(=O)Nc1ccc(-c2nc(N3CCOCC3)c3cnn(C4CCN(C(=O)c5ccc(Cl)nc5)CC4)c3n2)cc1` [Compound 668, 1-[4-(1-{1-[(6-chloropyridin-3-yl)carbonyl]piperidin-4-yl}-4-morpholin-4-yl-1H-pyrazolo[3,4-d]pyrimidin-6-yl)phenyl]-3-methylurea], the half-inhibitory concentration (IC50) in the assay on breast line MDA468 amounted to 410 nM; in the assay with prostate line LNCap, 150 nM; on PI3K (PI3Kα, read-out: PI3Kα IC50), 84 nM.

For `NS(=O)(=O)c1ccc(-c2nc(N3CCOCC3)c3cnn(C4CCN(Cc5ccccc5)CC4)c3n2)cc1` [Compound 85], the IC50 in the assay with breast line MDA468 (Homo sapiens, 72 h) came out at 9000 nM; with prostate line LNCap (Homo sapiens, LNCaP, 72 h), 8000 nM; on PI3K (PI3Kα, read-out: PI3Kα IC50), 2280 nM.

Consider `Oc1cccc(-c2nc(N3CCOCC3)c3cnn(C4CCN(CC5CC5)CC4)c3n2)c1` [Example 13], for which the IC50 in the assay with breast line MDA468 (Homo sapiens, 72 h) is 1500 nM; with prostate line LNCap (Homo sapiens, LNCaP, 72 h), 270 nM; at PI3K (PI3Kα, read-out: PI3Kα IC50), 34 nM.
